Test results as given in patent US9388123B2, “LSD1-selective inhibitor having lysine structure” (KYOTO UNIVERSITY, priority 2012, dated 2016).
Where a name gives a salt, the structure may show the parent alone.

How the values were obtained:
[1] = molecular target: T1, monoamine oxidase B (MAO-B) (Homo sapiens, UniProt P27338); assay: Monoamine oxidase inhibition test (MAO-Glo assay kit); assay type: biochemical; settings: room temperature, 1 hour
T1 construct: purchased Sigma-Aldrich
T1 sequence (P27338 1-520): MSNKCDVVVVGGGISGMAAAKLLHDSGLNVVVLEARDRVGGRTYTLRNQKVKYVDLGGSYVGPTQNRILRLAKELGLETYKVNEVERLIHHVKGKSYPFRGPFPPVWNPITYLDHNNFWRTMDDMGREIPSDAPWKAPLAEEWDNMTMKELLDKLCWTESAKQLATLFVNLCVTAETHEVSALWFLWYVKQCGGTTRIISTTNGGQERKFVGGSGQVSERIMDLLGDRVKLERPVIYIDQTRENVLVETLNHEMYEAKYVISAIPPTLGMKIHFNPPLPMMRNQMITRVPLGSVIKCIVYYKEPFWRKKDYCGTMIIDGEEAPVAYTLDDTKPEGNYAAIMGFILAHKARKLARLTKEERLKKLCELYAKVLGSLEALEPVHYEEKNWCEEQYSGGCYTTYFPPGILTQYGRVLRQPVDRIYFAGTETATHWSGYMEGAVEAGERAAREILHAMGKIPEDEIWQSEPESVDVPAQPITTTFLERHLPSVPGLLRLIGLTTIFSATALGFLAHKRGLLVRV
Procedure: To the reaction liquid was added 50 μL of a luciferin detection reagent, and the mixture was subjected to a reaction at room temperature for 20 minutes.

HeLa cells = assay: Cancer cell growth inhibition evaluation (MTT assay); assay type: cell-based; settings: Homo sapiens, 48 h, read-out: GI50 (μM) HeLa
Procedure: (§1) Evaluation was performed by measuring the inhibitory activities of a compound against the growth of a human cervical cancer-derived cell line, HeLa cells, and a human neuroblastoma cell line, SH-SY5Y cells. Details thereof are shown below. […] This assay involves, as a principle thereof, measuring an absorbance at the time of color development through a reaction of NADH, which is contained in the mitochondria of viable cells, and MTT to measure the amount of NADH. The assay was performed by the following procedure. […] After the culture, a compound was added. Then, the cells were cultured for an additional 48 hours, and then 5 mg/ml MTT liquid was added at 10 μl per well. The cells were cultured for an additional 3 hours in a CO2 incubator. A solubilization solution (0.04 mol/l hydrochloric acid-isopropanol) was added at 100 μl per well and the mixture was vigorously vortexed. After that, an absorbance at 560 nm was measured with Fusion-aFP (manufactured by PerkinElmer) and the amount of viable cells was determined.

SH-SY5Y cells = assay: as above; assay type: cell-based; settings: Homo sapiens, read-out: GI50 (μM) SH-SY5Y
Procedure: as §1

[2] = tested on: bone marrow cells of normal mice; assay: Normal cell growth inhibition evaluation (colony forming ability in methylcellulose semi-solid medium); assay type: cell-based; settings: 10 days culture, FIG. 1
Excerpt: In general, a semi-solid medium obtained by adding a cytokine involved in differentiation induction to a methylcellulose medium is used to evaluate a colony forming ability. Some of the bone marrow cells contain hematopoietic stem cells and precursor cells, which are sources of hematopoietic cells, and these cells can create a mass (called a colony) formed of several tens, several hundreds, and in some cases, several thousands of cells from a single cell on a semi-solid medium. The colony forming ability of the bone marrow cells may be evaluated by counting the number of the colonies. The colony forming ability in the semi-solid medium well reflects an actual supply ability and construction ability from the hematopoietic stem cells and precursor cells to the hematopoietic cells in vivo.
To 3 ml of MethoCult M3434 (methylcellulose-based semi-solid medium; StemCell Technologies; containing interleukin 3(IL-3), interleukin 6 (IL-6), erythropoietin (EPO), and stem cell factor (SCF)) were added 600,000 bone marrow cells of normal mice (suspended in 300 μl of IMDM medium), and the mixture was stirred well and plated at 1.1 ml per 3.5-cm culture dish. The cells were cultured under the conditions of 5% CO2 and 37° C. for 10 days in an incubator. A mass in which the number of cells was 50 or more was defined as a colony, and the number of colonies formed on each dish was counted.

[3] = tested on: human leukemia cell lines; assay: Leukemia cell growth inhibition evaluation, summary in words; assay type: cell-based; settings: Table 5
Excerpt: (§2) HL60, THP-1, K562, U937, KGla, HEL, and MDS-L were used as human leukemia cells. The cell lines are cell lines established from various subtypes such as acute myeloid leukemia, acute promyelocytic leukemia, acute monocytic leukemia, acute erythroid leukemia, and myelodysplastic syndromes, which progress to leukemia. Cells obtained by introducing leukemia fusion genes MLL/AF9, MLL/SEPT6, and MLL/ENL into the bone marrow of normal mice with a retrovirus so as to develop leukemia were used as murine leukemia cell lines.
(§3) This assay method involves, as a principle thereof, measuring an absorbance (a peak at from 450 nm to 490 nm) at the time of color development through a reaction of NADH, which is contained in the mitochondria of viable cells, and WST-8 to measure the amount of NADH. Specifically, the assay was performed by the following procedure.
(§4) The cells were plated at 50 μl, i.e., 5,000 cells per well in a 96-well microtiter plate. Next, a test compound dissolved in DMSO was mixed at various concentrations into the same medium, and 50 μl of each of the mixtures was added to each well. A medium was prepared so that the final concentration of the test compound was from 0 μM to 50 μM and so that the addition amount of DMSO was the same, and the cells were cultured in a CO2 incubator. On day 0 before the addition and on day 1, day 2, and day 3 after the addition, WST-8 reagent was added at 20 μl per well, and the cells were cultured for 1 hour in a CO2 incubator. After that, measurement was performed with ARVO X3 (manufactured by PerkinElmer).
(§5) Specifically, an absorbance at 450 nm was measured, an absorbance at 595 nm was measured in the same well, and the absorbance at 595 nm was subtracted from the absorbance at 450 nm to perform background correction for the well itself. Further, a well containing only a medium free of cells was subjected to the same measurement. A value in this case was also subtracted. Thus, the amount of viable cells was represented as a numerical value with correction of the influence of a medicament or a medium as well. Under a condition not containing the test compound (addition of only dimethyl sulfoxide), an exponential increase in number of viable cells on day 1, day 2, and day 3 in the stated order was confirmed.

[4] = tested on: murine leukemia cell lines; assay: as above; assay type: cell-based; settings: Table 6
Excerpt: as §2, §3, §4, §5

[5] = at a concentration of up to 5 μM

| Structure (SMILES) | IC50 [1] [µM] | GI50 (HeLa cells) [µM] | GI50 (SH-SY5Y cells) [µM] | colony forming ability ([2]; at 10 μM) | colony forming ability [2, 5] | growth inhibitory / suppressing effect on the human leukemia cell lines (in words) [3] | growth inhibitory / suppressing effect on the murine leukemia cell lines (in words) [4] |
| --- | --- | --- | --- | --- | --- | --- | --- |
| O=C(N[C@@H](CCCCNC1CC1c1ccccc1)C(=O)NCc1ccccc1)c1ccc(-c2ccccc2)cc1 (stereo partly drawn) [Example 8, 2-[N-(4-Phenylbenzenecarbonyl)]amino-6-(trans-2-phenylcyclopropan-1-amino)-N-benzylhexanamide Hydrochloride] | > 100 | 11 | 4 | remarkably inhibited | not inhibited | higher growth suppressing effects on the human leukemia cell lines than Comparative Example 2 | very high growth suppressing effects |
| O=C(N[C@@H](CCCCNC1CC1c1ccccc1)C(=O)NCc1cccc(C(F)(F)F)c1)c1ccc(-c2ccccc2)cc1 (stereo partly drawn) [Example 19, 2-[N-(4-Phenylbenzenecarbonyl)]amino-6-(trans-2-phenylcyclopropan-1-amino)-N-(3-trifluoromethylbenzyl)hexanamide Hydrochloride] | > 100 | 4.3 | 2.9 | remarkably inhibited | not inhibited | higher growth suppressing effects on the human leukemia cell lines than Comparative Example 2 | very high growth suppressing effects |
